Data from ChEMBL document CHEMBL4346666, “Synthesis, mitochondrial localization of fluorescent derivatives of cinnamamide as anticancer agents” (Eur J Med Chem, 2019).

Legend:
HepG2 = test: Cytotoxicity against human HepG2 cells assessed as cell viability at 20 uM measured after 48 hrs by MTT assay relative to control; type: functional; conditions: HepG2, 48 h, read-out: Activity
MCF7 = test: Cytotoxicity against human MCF7 cells assessed as cell viability at 20 uM measured after 48 hrs by MTT assay relative to control; type: functional; conditions: MCF7, 48 h, read-out: Activity
HeLa = test: Cytotoxicity against human HeLa cells assessed as cell viability at 20 uM measured after 48 hrs by MTT assay relative to control; type: functional; conditions: read-out: Activity
HL-60 [1] = test: Cytotoxicity against human HL60 cells assessed as cell viability at 20 uM measured after 48 hrs by MTT assay relative to control; type: functional; conditions: HL-60, 48 h, read-out: Activity
HL-60 [2] = test: Cytotoxicity against human HL60 cells assessed as reduction in cell viability measured after 48 hrs by MTT assay; type: functional, cell-based; conditions: HL-60, 48 h

Work on `CCN(CC)c1ccc2cc(C(=O)NCCCCNC(=O)/C(=C/c3cc(OC)c(OC)c(OC)c3)c3ccc(OC)cc3)c(=O)oc2c1` yielded a viability at 20 µM (HepG2) of 100%, a viability at 20 µM (MCF7) of 84.9% and a viability at 20 µM (HeLa) of 75%. The viability at 20 µM (HL-60 [1]) was 51.3%.
`CCN(CC)c1ccc2cc(C(=O)NCCCCNC(=O)/C=C/c3cc(OC)c(OC)c(OC)c3)c(=O)oc2c1` showed a viability at 20 µM (HepG2) of 93.8%, a viability at 20 µM (MCF7) of 93.8% and a viability at 20 µM (HeLa) of 74.5%. The viability at 20 µM (HL-60 [1]) was 56.3%.
`CCN(CC)c1ccc2cc(C(=O)N3CCN(C(=O)/C(=C/c4cc(OC)c(OC)c(OC)c4)c4ccc(OC)cc4)CC3)c(=O)oc2c1` gave a viability at 20 µM (HepG2) of 100%, a viability at 20 µM (MCF7) of 100% and a viability at 20 µM (HeLa) of 100%. For the same molecule, the viability at 20 µM (HL-60 [1]) was 74.3%.
`CCN(CC)c1ccc2cc(C(=O)N3CCN(C(=O)/C=C/c4c(OC)cc(OC)cc4OC)CC3)c(=O)oc2c1` was tested, and the viability at 20 µM (HepG2) was 88.7%, the viability at 20 µM (MCF7) was 94% and the viability at 20 µM (HeLa) was 78.2%. It also gave a viability at 20 µM (HL-60 [1]) of 75.3%.
`CCN(CC)c1ccc2cc(C(=O)NCCNC(=O)/C=C/c3c(OC)cc(OC)cc3OC)c(=O)oc2c1` gave a viability at 20 µM (HepG2) of 75.4%, an IC50 (HL-60 [2]) of over 25 µM and a viability at 20 µM (MCF7) of 72.1%. For the same molecule, the viability at 20 µM (HeLa) was 63.9% and the viability at 20 µM (HL-60 [1]) was 68.9%.
With `CCN(CC)c1ccc2cc(C(=O)NCCNC(=O)/C(=C/c3cc(OC)c(OC)c(OC)c3)c3ccc(F)cc3)c(=O)oc2c1` the viability at 20 µM (HepG2) was 96%, the IC50 (HL-60 [2]) was 18.8 µM and the viability at 20 µM (MCF7) was 75.3%. It also gave a viability at 20 µM (HeLa) of 84.7% and a viability at 20 µM (HL-60 [1]) of 68.3%.
`CCN(CC)c1ccc2cc(C(=O)NCCNC(=O)/C=C/c3cc(OC)c(OC)c(OC)c3)c(=O)oc2c1` showed a viability at 20 µM (HepG2) of 72.9%, an IC50 (HL-60 [2]) of 23.3 µM and a viability at 20 µM (MCF7) of 72.4%. For the same molecule, the viability at 20 µM (HeLa) was 61.4% and the viability at 20 µM (HL-60 [1]) was 45.5%.
`CCN(CC)c1ccc2cc(C(=O)N3CCN(C(=O)/C=C/c4cc(OC)c(OC)cc4OC)CC3)c(=O)oc2c1` was tested, and the viability at 20 µM (HepG2) was 99.6%, the viability at 20 µM (MCF7) was 91.6% and the viability at 20 µM (HeLa) was 84.6%. It also gave a viability at 20 µM (HL-60 [1]) of 80.1%.
Molecule `CCN(CC)c1ccc2cc(C(=O)NCCNC(=O)/C=C/c3ccc(OC)cc3)c(=O)oc2c1` has a viability at 20 µM (HepG2) of 68.8%, an IC50 (HL-60 [2]) of over 25 µM and a viability at 20 µM (MCF7) of 80.7%. For the same molecule, the viability at 20 µM (HeLa) was 71.8% and the viability at 20 µM (HL-60 [1]) was 78.5%.
With `CCN(CC)c1ccc2cc(C(=O)NCCCCCCNC(=O)/C(=C/c3cc(OC)c(OC)c(OC)c3)c3ccc(OC)cc3)c(=O)oc2c1` the viability at 20 µM (HepG2) was 100%, the viability at 20 µM (MCF7) was 100% and the viability at 20 µM (HeLa) was 100%. The viability at 20 µM (HL-60 [1]) was 82.5%.
Molecule `CCN(CC)c1ccc2cc(C(=O)NCCNC(=O)/C(=C/c3cc(OC)c(OC)c(OC)c3)c3ccc(C(F)(F)F)cc3)c(=O)oc2c1` has a viability at 20 µM (HepG2) of 98.9%, an IC50 (HL-60 [2]) of over 25 µM and a viability at 20 µM (MCF7) of 79.1%. It also gave a viability at 20 µM (HeLa) of 74% and a viability at 20 µM (HL-60 [1]) of 54.2%.
Molecule `CCN(CC)c1ccc2cc(C(=O)N3CCN(C(=O)/C=C/c4ccc(OC)cc4)CC3)c(=O)oc2c1` has a viability at 20 µM (HepG2) of 98.9%, a viability at 20 µM (MCF7) of 98.1% and a viability at 20 µM (HeLa) of 81.6%. For the same molecule, the viability at 20 µM (HL-60 [1]) was 85.6%.
In the case of `CCN(CC)c1ccc2cc(C(=O)NCCCCCCNC(=O)/C=C/c3ccc(OC)cc3)c(=O)oc2c1`, the viability at 20 µM (HepG2) is reported as 76.6%, the viability at 20 µM (MCF7) is reported as 87.8% and the viability at 20 µM (HeLa) is reported as 100%. It also gave a viability at 20 µM (HL-60 [1]) of 99.8%.
Molecule `CCN(CC)c1ccc2cc(C(=O)NCCNC(=O)/C(=C/c3cc(OC)c(OC)c(OC)c3)c3ccc(OC)c(F)c3)c(=O)oc2c1` has a viability at 20 µM (HepG2) of 100%, an IC50 (HL-60 [2]) of 15 µM and a viability at 20 µM (MCF7) of 100%. For the same molecule, the viability at 20 µM (HeLa) was 99.7% and the viability at 20 µM (HL-60 [1]) was 67.7%.
In the case of `CCN(CC)c1ccc2cc(C(=O)N3CCN(C(=O)/C(=C/c4cc(OC)c(OC)c(OC)c4)c4ccc(OC)c(OC)c4)CC3)c(=O)oc2c1`, the viability at 20 µM (HepG2) is reported as 82.1%, the viability at 20 µM (MCF7) is reported as 100% and the viability at 20 µM (HeLa) is reported as 97.8%. The viability at 20 µM (HL-60 [1]) was 80.3%.
Work on `CCN(CC)c1ccc2cc(C(=O)NCCNC(=O)CCc3cc(OC)c(OC)c(OC)c3)c(=O)oc2c1` yielded a viability at 20 µM (HepG2) of 66.8%, an IC50 (HL-60 [2]) of over 25 µM and a viability at 20 µM (MCF7) of 78.2%. For the same molecule, the viability at 20 µM (HeLa) was 67.4% and the viability at 20 µM (HL-60 [1]) was 80.4%.
`CCN(CC)c1ccc2cc(C(=O)NCCCCCCNC(=O)/C=C/c3cc(OC)c(OC)c(OC)c3)c(=O)oc2c1` gave a viability at 20 µM (HepG2) of 100%, a viability at 20 µM (MCF7) of 91% and a viability at 20 µM (HeLa) of 72.2%. For the same molecule, the viability at 20 µM (HL-60 [1]) was 43.5%.
Work on `CCN(CC)c1ccc2cc(C(=O)NCCNC(=O)/C(=C/c3cc(OC)c(OC)c(OC)c3)c3ccc(OC)cc3)c(=O)oc2c1` yielded a viability at 20 µM (HepG2) of 100%, an IC50 (HL-60 [2]) of 13.8 µM and a viability at 20 µM (MCF7) of 75.8%. For the same molecule, the viability at 20 µM (HeLa) was 75% and the viability at 20 µM (HL-60 [1]) was 29.4%.
`CCN(CC)c1ccc2cc(C(=O)N3CCN(C(=O)/C=C/c4cc(OC)c(OC)c(OC)c4)CC3)c(=O)oc2c1` was tested, and the viability at 20 µM (HepG2) was 97.2%, the viability at 20 µM (MCF7) was 100% and the viability at 20 µM (HeLa) was 82.6%. It also gave a viability at 20 µM (HL-60 [1]) of 74.5%.
For `CCN(CC)c1ccc2cc(C(=O)NCCNC(=O)/C=C/c3cc(OC)c(OC)cc3OC)c(=O)oc2c1`, the viability at 20 µM (HepG2) was 100%, the IC50 (HL-60 [2]) was 22.9 µM and the viability at 20 µM (MCF7) was 76.4%. For the same molecule, the viability at 20 µM (HeLa) was 72.6% and the viability at 20 µM (HL-60 [1]) was 48.2%.
